Source: US12128114B2, “177Lu-DOTA-HYNIC-iPSMA as a therapeutic radiopharmaceutical targeting prostate-specific membrane antigen” (INSTITUTO NACIONAL DE INVESTIGACIONES NUCLEARES, priority 2018, dated 2024)
Each block holds one molecule with its values, some of them ahead of it.

Tests used:
protein PSMA = target: T1, protein PSMA (Homo sapiens, UniProt Q04609); assay: Saturation studies in cancer cells positive for the protein PSMA (LNCaP); type: binding
T1 construct: saturation studies in cancer cells positive for the protein PSMA (LNCaP); endogenous in cells; host or cells: LNCaP

[1] = Biokinetics and dosimetry in healthy subjects (whole-body images, OLINDA/EXM); type: in vivo, human
Procedure: To determine the biokinetics and dosimetry for the radiopharmaceutical, whole-body images were acquired for five healthy subjects at 20 mins and 6, 24, 48 and 120 h post-administration of ^177Lu-DOTA-HYNIC-iPSMA (185 MBq). The sequence of images was used to extrapolate the time-activity curves in each organ to adjust the biokinetic model and calculate the total number of disintegrations (N) that occurred in the source regions. The values of N were used in the OLINDA/EXM code to calculate the internal doses of radiation. […] Uptake and excretion is mainly renal, with lower hepatic uptake and high uptake in the […], salivary, and lachrymal glands. The average doses absorbed were 0.23, 0.28, 0.88, and 1.17 mGy/MBq for the spleen, liver, kidney, and salivary glands, respectively.

[2] = Stability of the radiopharmaceutical post-labelling (radiochemical purity); type: physicochemical; settings: for more than 7 days post-labelling
Procedure: After reconstitution in 1.1 mL sodium acetate 1 M buffer solution pH 5.0 containing the sterile and pyrogen-free solution of lutetium-177 chloride (^177LuCl3) and incubation in a dry bath at 95° C. for 30 minutes, said formulation gave a clear, aqueous solution of the compound to be patented ^177Lu-DOTA-HYNIC-iPSMA (FIG. 1) with a radiochemical purity of more than 98%, as determined by reverse-phase HPLC, which presents the radio-chromatogram shown in FIG. 3.
(§1) The radiopharmaceutical remains stable, with a radiochemical purity of more than 98% for more than 7 days post-labelling. In vitro stability tests in human serum show a serum protein binding of 6.5±1.8% and a high radiochemical stability (>98%).

[3] = Toxicity in balb-C laboratory mice; type: in vivo; settings: dose of 40 mg/kg
LNCaP-induced tumors = assay: Biodistribution assays in nude mice with LNCaP-induced tumors; type: in vivo
[4] = system: metastatic prostate cancer lesions; assay: Radiotherapeutic potential in prostate cancer patients (68Ga-PSMA-11 PET/CT and serum PSA); type: in vivo, human
Procedure: To evaluate the radiotherapeutic potential, between one and four cycles of ^177Lu-DOTA-HYNIC-iPSMA (3.7 or 7.4 GBq) were administered to 11 patients (mean age: 66 years; range: 45-86) every 8-10 weeks. The response was evaluated using images with ^68Ga-PSMA-11 PET/CT (radiopharmaceutical with a proven affinity in clinical practice and a high-resolution technique for the specific detection of metastatic prostate cancer lesions) and determining serum prostate-specific antigen (PSA) levels before and after treatment.

[5] = In vitro stability tests in human serum; type: in vitro ADME
From the text: as §1

prostate cancer = settings: clinical studies, literature; cited from earlier work

T1 sequence (Q04609 whole entry): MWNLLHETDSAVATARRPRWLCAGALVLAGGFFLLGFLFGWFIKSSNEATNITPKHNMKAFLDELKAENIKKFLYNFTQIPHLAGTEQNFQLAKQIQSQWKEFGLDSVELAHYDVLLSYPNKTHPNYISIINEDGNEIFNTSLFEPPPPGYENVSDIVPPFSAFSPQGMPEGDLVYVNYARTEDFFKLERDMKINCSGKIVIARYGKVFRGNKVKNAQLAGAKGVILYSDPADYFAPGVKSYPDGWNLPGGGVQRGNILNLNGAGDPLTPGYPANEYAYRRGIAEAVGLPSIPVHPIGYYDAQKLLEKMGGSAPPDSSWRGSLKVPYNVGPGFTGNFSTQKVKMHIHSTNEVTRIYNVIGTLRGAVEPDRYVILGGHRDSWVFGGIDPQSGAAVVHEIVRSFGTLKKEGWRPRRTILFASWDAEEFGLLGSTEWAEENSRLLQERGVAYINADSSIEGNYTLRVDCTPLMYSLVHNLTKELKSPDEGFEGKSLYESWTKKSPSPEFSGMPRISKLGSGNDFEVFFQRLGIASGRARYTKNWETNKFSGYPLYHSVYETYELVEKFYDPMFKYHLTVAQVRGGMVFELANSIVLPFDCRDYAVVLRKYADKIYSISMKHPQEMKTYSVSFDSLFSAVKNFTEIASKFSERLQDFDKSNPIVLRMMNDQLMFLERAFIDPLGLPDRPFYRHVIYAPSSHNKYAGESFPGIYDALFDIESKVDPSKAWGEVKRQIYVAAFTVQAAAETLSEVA

Compound: O=C(O)CCC(NC(=O)NC(CCCCNC(=O)C(Cc1ccc2ccccc2c1)NC(=O)c1ccc(NNC(=O)CN2CCN3CCN4CCN(CC2)CC(=O)[O][177Lu]([O]C(=O)C3)[O]C(=O)C4)nc1)C(=O)O)C(=O)O (centres unmarked) [177Lu-DOTA-HYNIC-iPSMA]
maximum number of binding sites (Bmax) (protein PSMA): 5.89 ± 0.47 nM
average dose absorbed, kidney ([1]; healthy subjects, kidney): 0.88 mGy/MBq
average dose absorbed, liver ([1]; healthy subjects, liver): 0.28 mGy/MBq
average dose absorbed, salivary glands ([1]; healthy subjects, salivary glands): 1.17 mGy/MBq
average dose absorbed, spleen ([1]; healthy subjects, spleen): 0.23 mGy/MBq
uptake and excretion ([1]; healthy volunteers): mainly renal
half life, second slow component (T1/2γ) ([1]; healthy volunteers, 185 MBq, ln 2/0.008): 79.6 h
half life, first slow component (T1/2β) ([1]; healthy volunteers, 185 MBq, ln 2/0.075): 9.2 h
half life, fast component (T1/2α) ([1]; healthy volunteers, 185 MBq, ln 2/0.614): 1.1 h
radiochemical purity (stability post-labelling) [2]: more than 98%
toxicity or adverse effects [3]: did not present toxicity or adverse effects
elimination pathway (LNCaP-induced tumors): mainly renal
uptake in tumors, % of the activity administered per gram of tissue (LNCaP-induced tumors): 9.74±1.13 % ID/g
patients exhibiting a reduction in PSA ([4]; 11 patients, one to four cycles of 3.7 or 7.4 GBq every 8-10 weeks): Around 60%
patients with a reduction in the number and size of metastatic lesions and/or uptake intensity, by imaging ([4]; 11 patients, one to four cycles of 3.7 or 7.4 GBq, 68Ga-PSMA-11 PET/CT): 70%
metastatic lesion sites on 68Ga-PSMA-11 PET follow-up ([4]; one patient, three cycles of treatment (FIG. 6)): decrease in size and number
radiochemical stability [5]: more than 98%
serum protein binding [5]: 6.5±1.8%

Kd (protein PSMA): 6.33 ± 2.69 nM
Compound: O=C(O)CCC(NC(=O)NC(CCCCNC(=O)C(Cc1ccc2ccccc2c1)NC(=O)c1ccc(NNC(=O)CN2CCN3CCN4CCN(CC2)CC(=O)[O][Lu]([O]C(=O)C3)[O]C(=O)C4)nc1)C(=O)O)C(=O)O (centres unmarked) [177Lu-DOTA-HYNIC-iPSMA]

Compound: O=C([O-])CN1CCN(CC(=O)[O-])CCN(CC(=O)NCC2CCC(C(=O)N[C@@H](Cc3ccc4ccccc4c3)C(=O)NCCCC[C@H](NC(=O)N[C@@H](CCC(=O)O)C(=O)O)C(=O)O)CC2)CCN(CC(=O)[O-])CC1.[177Lu+3] (some centres unmarked) [Lu-PSMA-617]
side-effects (prostate cancer): no severe side-effects
